Values of other authors in patent US20160280572A1, “POLYMERS FOR FLOCCULATION, DEWATERING AND CONSOLIDATION OF OIL SANDS FLUID FINE TAILINGS, MINE TAILINGS AND SOLID PARTICULATE SUSPENSIONS” (THE GOVERNORS OF THE UNIVERSITY OF ALBERTA, priority 2015, published 2016).
≈ marks a conversion by molar mass, not a printed value.

Conditions: in water, 20 Celsius

Row | Compound | Solubility
1 | C=CC#N [Acrylonitrile] | 70 mg/mL (≈ 1320 mM)
2 | C=C(C)C(N)=O [Methacrylamide] | 202 mg/mL (≈ 2370 mM)
3 | C=CC(=O)OC [methyl acrylate] | 60 mg/mL (≈ 697 mM)
4 | C=C(C)C(=O)OC [methyl methacrylate] | 16 mg/mL (≈ 160 mM)
5 | C=Cc1ccccc1 [styrene] | 0.3 mg/mL (≈ 2.88 mM)
6 | C=COC(C)=O [vinyl acetate] | 25 mg/mL

Same assay, conditions: in water, temperature Not Listed

Row | Compound | Solubility
7 | C=C(C)C(=O)OCCCC [butyl methacrylate] | 6 mg/mL (≈ 42.2 mM)
